This test deals with Enoyl-[acyl-carrier-protein] reductase [NADH] (Mycobacterium tuberculosis, UniProt P9WGR1, S94A).

Each structure is given as a SMILES string.

By IC50 is commonly meant the midpoint of a concentration-inhibition curve. Read a low IC50 as inhibition by little substance. The molecule `Oc1cc2ccc1Oc1ccc(cc1)CCc1ccc(c(O)c1)Oc1ccc(cc1)CC2` showed an IC50 of 4.7 µM.

(Values after ChEMBL document CHEMBL5230110, “FabI (enoyl acyl carrier protein reductase) - A potential broad spectrum therapeutic target and its inhibitors” (Eur J Med Chem, 2020).)
